Test results from patent US10023534B2 (BRISTOL-MYERS SQUIBB COMPANY, priority 2014, dated 2018).
Like-named read-outs stand apart in the source and are kept apart here.

Columns and labels:
Ramos RA1 B cells = experiment: Ramos FLIPR Assay (intracellular calcium flux, anti-human IgM stimulated); type: cell-based
Description: Ramos FLIPR Assay […] Dye-loaded cells were pelleted (Beckmann GS-CKR, 1200 rpm, room temperature, 5 min) and resuspended at room temperature in RPMI minus phenol red with 50 mM HEPES and 10% FBS to a density of 1×10^6 cells/mL. 150 μL aliquots (150,000 cells/well) were plated into 96 well poly-D-lysine coated assay plates (BD 35 4640) and briefly centrifuged (Beckmann GS-CKR 800 rpm, 5 min, without brake). Next, 50 μL compound dilutions in 0.4% DMSO/RPMI minus phenol red+50 mM HEPES+10% FBS were added to the wells and the plate was incubated at room temperature in the dark for 1 hour. The assay plate was briefly centrifuged as above prior to measuring calcium levels. Using the […] (Molecular Devices), cells were stimulated by adding goat anti-human IgM (Invitrogen AHI0601) to 2.5 μg/mL. Changes in intracellular calcium concentrations were measured for 180 seconds and percent inhibition was determined relative to peak calcium levels seen in the presence of stimulation only. The Ramos assay measures the ability of a compound to move through the cell membrane into the cell interior. A lower IC50 value indicates a greater ability to move into the cell interior.

human recombinant Btk = human recombinant Btk (Homo sapiens (Human), UniProt Q06187); experiment: Human Recombinant Btk Enzyme Assay; type: biochemical
Description: Human Recombinant Btk Enzyme Assay
To V-bottom 384-well plates were added test compounds, human recombinant Btk (1 nM, Invitrogen Corporation), fluoresceinated peptide (1.5 μM), ATP (20 μM), and assay buffer (20 mM HEPES pH 7.4, 10 mM MgCl2, 0.015% Brij 35 surfactant and 4 mM DTT in 1.6% DMSO), with a final volume of 30 μL. After incubating at room temperature for 60 min, the reaction was terminated by adding 45 μL of 35 mM EDTA to each sample. The reaction mixture was analyzed on the Caliper LABCHIP® 3000 (Caliper, Hopkinton, Mass.) by electrophoretic separation of the fluorescent substrate and phosphorylated product. […] Compounds were dissolved at 10 mM in DMSO and evaluated at eleven concentrations.

[1] = Ramos, Table 3, calcium flux, goat anti-human IgM 2.5 μg/mL, read-out: Ramos IC50 value
[2] = Table 3, ATP 20 μM, 60 min room temperature, read-out: Btk IC50 value
[3] = Homo sapiens, Ramos, Table 3, calcium flux, goat anti-human IgM 2.5 μg/mL, read-out: Ramos IC50 value
[4] = Homo sapiens, Ramos, Table 4, Comparative Example, read-out: Comparative Example Ramos IC50
[5] = Table 4, Comparative Example, read-out: Comparative Example Btk IC50
[6] = Homo sapiens, Ramos, Table 4, read-out: Example Ramos IC50

human recombinant Btk, sequence (Q06187 whole entry): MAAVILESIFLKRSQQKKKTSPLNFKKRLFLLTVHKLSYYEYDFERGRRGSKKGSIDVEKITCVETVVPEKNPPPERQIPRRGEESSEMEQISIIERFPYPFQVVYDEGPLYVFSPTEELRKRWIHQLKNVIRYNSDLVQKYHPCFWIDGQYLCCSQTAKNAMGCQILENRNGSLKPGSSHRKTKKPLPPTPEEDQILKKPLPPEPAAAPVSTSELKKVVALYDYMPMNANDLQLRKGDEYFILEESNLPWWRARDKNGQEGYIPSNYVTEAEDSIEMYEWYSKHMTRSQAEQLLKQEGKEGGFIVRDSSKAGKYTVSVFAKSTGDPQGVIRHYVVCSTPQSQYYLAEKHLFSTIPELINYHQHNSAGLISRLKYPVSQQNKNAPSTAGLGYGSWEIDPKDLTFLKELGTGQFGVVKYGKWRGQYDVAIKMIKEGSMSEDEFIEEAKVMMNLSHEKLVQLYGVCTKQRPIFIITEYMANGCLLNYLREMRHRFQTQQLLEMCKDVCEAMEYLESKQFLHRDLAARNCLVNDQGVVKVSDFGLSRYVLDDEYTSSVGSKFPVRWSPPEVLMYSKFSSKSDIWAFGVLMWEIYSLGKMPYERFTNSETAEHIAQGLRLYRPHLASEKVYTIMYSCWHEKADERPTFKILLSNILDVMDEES

SMILES	IC50 (Ramos RA1 B cells; [1]) [nM]	IC50 (human recombinant Btk; [2]) [nM]	IC50 (Ramos RA1 B cells; [4]) [nM]	further results
C=CC(=O)N1CCOc2c(-c3c(F)cc(C(N)=O)c4[nH]c5ccccc5c34)cccc21 (racemic) [Example 3, (RS)-4-(4-acryloyl-3,4-dihydro-2H-benzo[b][1,4]oxazin-8-yl)-3-fluoro-9H-carbazole-1-carboxamide]	4.6	0.075		
C=CC(=O)N1CCSc2c(-c3c(F)cc(C(N)=O)c4[nH]c5ccccc5c34)cccc21 (racemic) [Example 13, (RS)-4-(4-acryloyl-3,4-dihydro-2H-benzo[b][1,4]thiazin-8-yl)-3-fluoro-9H-carbazole-1-carboxamide]	9.2	0.13		
N#CN1CCc2c(cccc2-c2c(F)cc(C(N)=O)c3[nH]c4cc(CCO)ccc4c23)C1 (racemic) [Example 27, 4-(2-cyano-1,2,3,4-tetrahydroisoquinolin-5-yl)-3-fluoro-7-(2-hydroxyethyl)-9H-carbazole-1-carboxamide]	142	4.8		
C=CC(=O)N1CCc2c(cccc2-c2c(F)cc(C(N)=O)c3[nH]c4ccc(Cl)cc4c23)C1 (racemic) [Example 29, 4-(2-acryloyl-1,2,3,4-tetrahydroisoquinolin-5-yl)-6-chloro-3-fluoro-9H-carbazole-1-carboxamide]	107	0.26		
C=CC(=O)N1CCc2c(cccc2-c2c(Cl)cc(C(N)=O)c3[nH]c4c(c23)CCCC4)C1 (racemic) [Example 32, 5-(2-acryloyl-1,2,3,4-tetrahydroisoquinolin-5-yl)-6-chloro-2,3,4,9-tetrahydro-1H-carbazole-8-carboxamide]		0.6		IC50 (Ramos RA1 B cells; [3]): 46 nM
C=CC(=O)N1CCc2c(cccc2-c2c(F)cc(C(N)=O)c3[nH]c4ccccc4c23)C1 (single isomer, unassigned) [Comparative Example 15, 4-(2-Acryloyl-1,2,3,4-tetrahydroisoquinolin-5-yl)-3-fluoro-9H-carbazole-1-carboxamide]			72	IC50 (human recombinant Btk; [5]): 4 nM
C=CC(=O)N1CCOc2c(-c3c(F)cc(C(N)=O)c4[nH]c5ccccc5c34)cccc21 (single isomer, unassigned) [Comparative Example 18, 4-(4-Acryloyl-3,4-dihydro-2H-benzo[b][1,4]oxazin-8-yl)-3-fluoro-9H-carbazole-1-carboxamide]			65	IC50 (human recombinant Btk; [5]): 1.5 nM
C=CC(=O)N1CCc2c(cccc2-c2c(F)cc(C(N)=O)c3[nH]c4c(c23)CC[C@H](C(C)(C)O)C4)C1 (single isomer, unassigned) [Comparative Example 19]			> 300	
C=CC(=O)N1CCc2c(cccc2-c2c(F)cc(C(N)=O)c3[nH]c4c(c23)CCC(C(F)(F)F)C4)C1 (single isomer, unassigned) [Comparative Example 21, 5-(2-Acryloyl-1,2,3,4-tetrahydroisoquinolin-5-yl)-6-fluoro-2-(trifluoromethyl)-2,3,4,9-tetrahydro-1H-carbazole-8-carboxamide]				IC50 (Ramos RA1 B cells; Table 4, Comparative Example, read-out: Comparative Example Ramos IC50): > 300 nM
C=CC(=O)N1CCSc2c(-c3c(F)cc(C(N)=O)c4[nH]c5ccccc5c34)cccc21 (single isomer, unassigned) [Comparative Example 23, 4-(4-Acryloyl-3,4-dihydro-2H-benzo[b][1,4]thiazin-8-yl)-3-fluoro-9H-carbazole-1-carboxamide]			150	IC50 (human recombinant Btk; [5]): 4.4 nM
C=CC(=O)N1CCc2c(cccc2-c2c(F)cc(C(N)=O)c3[nH]c4c(c23)CC[C@H](C(C)(C)O)C4)C1 (single isomer, unassigned) [Example 9]				IC50 (Ramos RA1 B cells; [3]): 2.3 nM; IC50 (Ramos RA1 B cells; [6]): 2.3 nM
C=CC(=O)N1CCc2c(cccc2-c2c(F)cc(C(N)=O)c3[nH]c4c(c23)CCC(C(F)(F)F)C4)C1 (single isomer, unassigned) [Example 10, 5-(2-Acryloyl-1,2,3,4-tetrahydroisoquinolin-5-yl)-6-fluoro-2-(trifluoromethyl)-2,3,4,9-tetrahydro-1H-carbazole-8-carboxamide]				IC50 (Ramos RA1 B cells; [3]): 22.2 nM; IC50 (Ramos RA1 B cells; [6]): 22 nM
C=CC(=O)N1CCc2c(cccc2-c2c(F)cc(C(N)=O)c3[nH]c4c(c23)CCC(C(F)(F)F)C4)C1 (single isomer, unassigned) [Example 11, 5-(2-Acryloyl-1,2,3,4-tetrahydroisoquinolin-5-yl)-6-fluoro-2-(trifluoromethyl)-2,3,4,9-tetrahydro-1H-carbazole-8-carboxamide]				IC50 (Ramos RA1 B cells; Table 3, calcium flux, goat anti-human IgM 2.5 μg/mL, read-out: Ramos IC50 value): 16.3 nM; IC50 (Ramos RA1 B cells; Table 4, read-out: Example Ramos IC50): 16 nM
C=CC(=O)N1CCc2c(cccc2-c2c(Cl)cc(C(N)=O)c3[nH]c4ccccc4c23)C1 (single isomer, unassigned) [Example 24]				IC50 (Ramos RA1 B cells; [3]): 3 nM
C=CC(=O)N1CCc2c(cccc2-c2c(Cl)cc(C(N)=O)c3[nH]c4ccccc4c23)C1 [Example 30]				IC50 (Ramos RA1 B cells; [3]): 20 nM

The next lines start with results.

IC50 (Ramos RA1 B cells; [1]) [nM]	IC50 (human recombinant Btk; [2]) [nM]	IC50 (Ramos RA1 B cells; [4]) [nM]	SMILES	further results
25	0.18		C=CC(=O)N1CCc2c(cccc2-c2c(F)cc(C(N)=O)c3[nH]c4c(c23)CC(F)(F)CC4)C1 (racemic) [Example 1, (RS)-5-(2-Acryloyl-1,2,3,4-tetrahydroisoquinolin-5-yl)-3,3,6-trifluoro-2,3,4,9-tetrahydro-1H-carbazole-8-carboxamide]	
28	1.5		C=CC(=O)N1CCc2c(cccc2-c2c(F)cc(C(N)=O)c3[nH]c4cc(CCO)ccc4c23)C1 (racemic) [Example 25, 4-(2-acryloyl-1,2,3,4-tetrahydroisoquinolin-5-yl)-3-fluoro-7-(2-hydroxyethyl)-9H-carbazole-1-carboxamide]	
17	0.17		C=CC(=O)N1CCc2c(cccc2-c2c(F)cc(C(N)=O)c3[nH]c4cc(C(=O)N(C)C)ccc4c23)C1 (racemic) [Example 28, 4-(2-acryloyl-1,2,3,4-tetrahydroisoquinolin-5-yl)-3-fluoro-N7,N7-dimethyl-9H-carbazole-1,7-dicarboxamide]	
13	0.3		C=CC(=O)N1CCc2c(cccc2-c2c(F)cc(C(N)=O)c3[nH]c4ccncc4c23)C1 (racemic) [Example 31, 9-(2-acryloyl-1,2,3,4-tetrahydroisoquinolin-5-yl)-8-fluoro-5H-pyrido[4,3-b]indole-6-carboxamide]	
	2.3		C=CC(=O)N1CCc2c(cccc2-c2c(Cl)cc(C(N)=O)c3[nH]c4c(c23)CNCC4)C1 (racemic) [Example 33, 9-(2-acryloyl-1,2,3,4-tetrahydroisoquinolin-5-yl)-8-chloro-2,3,4,5-tetrahydro-1H-pyrido[4,3-b]indole-6-carboxamide]	
		> 300	C=CC(=O)N1CCc2c(cccc2-c2c(F)cc(C(N)=O)c3[nH]c4c(c23)CC(F)(F)CC4)C1 (single isomer, unassigned) [Comparative Example 16, 5-(2-Acryloyl-1,2,3,4-tetrahydroisoquinolin-5-yl)-3,3,6-trifluoro-2,3,4,9-tetrahydro-1H-carbazole-8-carboxamide]	IC50 (human recombinant Btk; [5]): 4.5 nM
		> 300	C=CC(=O)N1CCc2c(cccc2-c2c(F)cc(C(N)=O)c3[nH]c4cc(C(F)(F)F)ccc4c23)C1 (single isomer, unassigned) [Comparative Example 17, 4-(2-Acryloyl-1,2,3,4-tetrahydroisoquinolin-5-yl)-3-fluoro-7-(trifluoromethyl)-9H-carbazole-1-carboxamide]	IC50 (human recombinant Btk; [5]): 14 nM
		> 300	C=CC(=O)N1CCc2c(cccc2-c2c(F)cc(C(N)=O)c3[nH]c4c(c23)CCC(C(F)(F)F)C4)C1 (single isomer, unassigned) [Comparative Example 20, 5-(2-Acryloyl-1,2,3,4-tetrahydroisoquinolin-5-yl)-6-fluoro-2-(trifluoromethyl)-2,3,4,9-tetrahydro-1H-carbazole-8-carboxamide]	
		300	C=CC(=O)N1CCCOc2c(-c3c(F)cc(C(N)=O)c4[nH]c5cc(C(F)(F)F)ccc5c34)cccc21 (single isomer, unassigned) [Comparative Example 22, 4-(5-Acryloyl-2,3,4,5-tetrahydrobenzo[b][1,4]oxazepin-9-yl)-3-fluoro-7-(trifluoromethyl)-9H-carbazole-1-carboxamide]	IC50 (human recombinant Btk; [5]): 9.5 nM
